Experimental data as given in publication PMC10675732 (Viruses, 2023).

Tested on: A36T virus (PA/A36T, A/PR/8/34 (H1N1))
Assay type: cell-based, influenza A virus

SMILES | EC50 [µM] | Fold change
NC(=O)c1nc(F)c[nH]c1=O [Favipiravir] | 19.1 ± 4.87 | 0.86
O=C1c2c(O)c(=O)ccn2N([C@@H]2c3ccccc3SCc3c2ccc(F)c3F)[C@@H]2COCCN12 [baloxavir acid] | 0.00259 ± 0.00133 | 1.53
